Values of other authors, collected in PubChem BioAssay AID1259409 (Chemical Carcinogenesis Research Information System (CCRIS), 2018).
Values joined by “and” are separate entries in the source; they are usually repeats but may differ in a detail not shown here. Equal entries are not always repeated.

Tested on: rodent chemically induced tumor inhibition, incidence and multiplicity
Assay: CCRIS tumor inhibitor studies

For `S=C=NCc1ccccc1`, the “tumour outcome (control, treated, inhibition, significance)” value (Carcinogen: 1,2-DIMETHYLHYDRAZINE, 540-73-8, Dose [Inhibitor]: 1.25 MG/G IN DIET FOR 17 WK (STUDY DURATION: 36 WK), Route [Inhibitor]: ORAL, Species: MOUSE, Strain/Sex: CF1/FEMALE, Target Tissue: Type of Lesion: LARGE INTESTINE: TUMOR, Dose [Carcinogen]: 0.7 MG IN 0.2 ML EDTA SOLUTION ADMINISTERED 8 D AFTER INHIBITOR DIET STARTED AND CONTINUED 1/WK FOR 16 WK, Promoter: NONE USED) is given as 9/9 (100%), 14/14 (100%), 0%, not significant, the “tumour outcome (control, treated, inhibition, significance)” value (Carcinogen: 2-AMINO-1-METHYL-6-PHENYLIMIDAZO[4,5-B]PYRIDINE, 105650-23-5, Dose [Inhibitor]: 0, 400 PPM IN HIGH FAT DIET FOR DURATION OF STUDY BEGINNING 1 WK PRIOR TO CARCINOGEN TREATMENT (STUDY DURATION: 31 WK), Route [Inhibitor]: ORAL, Species: RAT, Strain/Sex: SPRAGUE-DAWLEY/FEMALE, Target Tissue: Type of Lesion: MAMMARY GLAND: ADENOCARCINOMA, Dose [Carcinogen]: 100 MG/KG BW 1/2 D FOR 16 D, Promoter: NONE USED) is given as 23/31 (74%), 20/32 (63%), 15%, not significant and the “tumour outcome (control, treated, inhibition, significance)” value (Carcinogen: 4-(METHYLNITROSAMINO)-1-(3-PYRIDYL)-1-BUTANONE [64091-91-4], BENZO[A]PYRENE [50-32-8], Dose [Inhibitor]: 1 UMOL/G IN DIET FOR 10 WK BEGINNING 1 WK PRIOR TO FIRST CARCINOGEN DOSE (STUDY DURATION: 28 WK), Route [Inhibitor]: ORAL, Species: MOUSE, Strain/Sex: A/J/FEMALE, Target Tissue: Type of Lesion: LUNG: TUMOR, Dose [Carcinogen]: 3 UMOL BAP + 3 UMOL NNK IN 0.1 ML COTTONSEED OIL 1X/WK FOR 8 WK (STUDY DURATION: 28 WK), Promoter: NONE) is given as 100%, 100%, 0%, not calculated. The “tumour outcome (control, treated, inhibition, significance)” value (Carcinogen: 4-(METHYLNITROSAMINO)-1-(3-PYRIDYL)-1-BUTANONE [64091-91-4], BENZO[A]PYRENE [50-32-8], Dose [Inhibitor]: 6 UMOL IN 0.1 ML COTTONSEED OIL 1/WK FOR 8 WK 2 HR PRIOR TO EACH CARCINOGEN DOSE (STUDY DURATION: 16 WK), Route [Inhibitor]: GAVAGE, Species: MOUSE, Strain/Sex: A/J/FEMALE, Target Tissue: Type of Lesion: LUNG: TUMOR, Dose [Carcinogen]: 3 UMOL BAP + 3 UMOL NNK IN 0.1 ML COTTONSEED OIL 1X/WK FOR 8 WK (STUDY DURATION: 16 WK), Promoter: NONE) was 100%, 100%, 0%, not calculated, the “tumour outcome (control, treated, inhibition, significance)” value (Carcinogen: 4-(METHYLNITROSAMINO)-1-(3-PYRIDYL)-1-BUTANONE, 64091-91-4, Dose [Inhibitor]: 0, 1 UMOL/G DIET FOR 15 WK BEGINNING 1 WK POST CARCINOGEN DOSE (STUDY DURATION: 16 WK), Route [Inhibitor]: ORAL, Species: MOUSE, Strain/Sex: STRAIN-A/FEMALE, Target Tissue: Type of Lesion: LUNG: ADENOMA, Dose [Carcinogen]: 10 UMOL ONCE, Promoter: NONE USED) was 100%, 100%, 0%, not significant and the “tumour outcome (control, treated, inhibition, significance)” value (Carcinogen: 4-(METHYLNITROSAMINO)-1-(3-PYRIDYL)-1-BUTANONE, 64091-91-4, Dose [Inhibitor]: 0, 3 UMOL/G DIET FOR 15 WK BEGINNING 1 WK POST CARCINOGEN DOSE (STUDY DURATION: 16 WK), Route [Inhibitor]: ORAL, Species: MOUSE, Strain/Sex: STRAIN-A/FEMALE, Target Tissue: Type of Lesion: LUNG: ADENOMA, Dose [Carcinogen]: 10 UMOL ONCE, Promoter: NONE USED) was 100%, 100%, 0%, not significant. For the same compound, the “tumour outcome (control, treated, inhibition, significance)” value (Carcinogen: 4-(METHYLNITROSAMINO)-1-(3-PYRIDYL)-1-BUTANONE, 64091-91-4, Dose [Inhibitor]: 0, 5 UMOL 1/D FOR 4 D ADMINISTERED PRIOR TO CARCINOGEN DOSE (STUDY DURATION: 116 D), Route [Inhibitor]: GAVAGE, Species: MOUSE, Strain/Sex: STRAIN-A, Target Tissue: Type of Lesion: LUNG: ADENOMA, Dose [Carcinogen]: 10 UMOL IN SALINE ADMINISTERED 2 HR POST LAST AGENT DOSE, Promoter: NONE USED) was 100%, 100%, 0%, the “tumour outcome (control, treated, inhibition, significance)” value (Carcinogen: 4-(METHYLNITROSAMINO)-1-(3-PYRIDYL)-1-BUTANONE, 64091-91-4, Dose [Inhibitor]: 0, 5 UMOL/D FOR 4 CONSECUTIVE DAYS (STUDY DURATION: 17 WK), Route [Inhibitor]: GAVAGE, Species: MOUSE, Strain/Sex: STRAIN-A/FEMALE, Target Tissue: Type of Lesion: LUNG: ADENOMA, Dose [Carcinogen]: 10 UMOL ONCE 2 HR POST LAST AGENT DOSE, Promoter: NONE USED) was 100%, 100%, 0%, not significant and the “tumour outcome (control, treated, inhibition, significance)” value (Carcinogen: 4-(METHYLNITROSAMINO)-1-(3-PYRIDYL)-1-BUTANONE, 64091-91-4, Dose [Inhibitor]: 5 UMOL/D FOR 4 CONSECUTIVE DAYS (STUDY DURATION: 16 WK), Route [Inhibitor]: GAVAGE, Species: MOUSE, Strain/Sex: STRAIN-A/FEMALE, Target Tissue: Type of Lesion: LUNG: ADENOMA, Dose [Carcinogen]: 10 UMOL ONCE 2 HR POST LAST AGENT DOSE, Promoter: NONE USED) was 30/30 (100%), 30/30 (100%), 0%. The “tumour outcome (control, treated, inhibition, significance)” value (Carcinogen: 4-(N-NITROSOMETHYLAMINO)-1-(3-PYRIDYL)-1-BUTANONE, 64091-91-4, Dose [Inhibitor]: 0, 5 UMOL/D FOR 4 CONSECUTIVE DAYS (STUDY DURATION: 16.5 WK), Route [Inhibitor]: GAVAGE, Species: MOUSE, Strain/Sex: STRAIN-A/FEMALE, Target Tissue: Type of Lesion: LUNG: ADENOMA, Dose [Carcinogen]: 10 UMOL ONCE 2 HR POST LAST AGENT DOSE, Promoter: NONE USED) was 100%, 100%, 0%, not significant, the “tumour outcome (control, treated, inhibition, significance)” value (Carcinogen: 4-METHYLNITROSAMINO)-1-(3-PYRIDYL)-1-BUTANONE, 64091-91-4, Dose [Inhibitor]: 0, 5 UMOL 1/D FOR 4 D ADMINISTERED PRIOR TO CARCINOGEN TREATMENT (STUDY DURATION: 116 D), Route [Inhibitor]: GAVAGE, Species: MOUSE, Strain/Sex: STRAIN A, Target Tissue: Type of Lesion: LUNG: ADENOMA, Dose [Carcinogen]: 10 UMOL ONCE 2 HR AFTER FINAL DOSE OF INHIBITOR, Promoter: NONE USED) was 100%, 100%, 0%, not significant and the “tumour outcome (control, treated, inhibition, significance)” value (Carcinogen: 7,12-DIMETHYLBENZ[A]ANTHRACENE, 57-97-6, Dose [Inhibitor]: 0.017 MMOL/G IN DIET BEGINNING 1 WK AFTER CARCINOGEN ADMINISTRATION (STUDY DURATION: 28 WK), Route [Inhibitor]: ORAL, Species: RAT, Strain/Sex: SPRAGUE-DAWLEY/FEMALE, Target Tissue: Type of Lesion: MAMMARY GLAND: TUMOR, Dose [Carcinogen]: 12 MG DMBA IN 1.0 ML OLIVE OIL ONCE, Promoter: NONE USED) was 100%, 63%, 37%, p<0.001. The “tumour outcome (control, treated, inhibition, significance)” value (Carcinogen: 7,12-DIMETHYLBENZ[A]ANTHRACENE, 57-97-6, Dose [Inhibitor]: 5.0 MG/G DIET AT AGE 9 WK SIMULTANEOUSLY WITH CARCINOGEN, 3/WK FOR 4 WK (STUDY DURATION: 20 WK), Route [Inhibitor]: ORAL, Species: MOUSE, Strain/Sex: ICR/FEMALE, Target Tissue: Type of Lesion: LUNG: ADENOMA, Dose [Carcinogen]: 0.05 MG/G DIET AT AGE 9 WK, 3/WK FOR 4 WK, Promoter: NONE USED) was 95%, 93%, 2%, not significant, the “tumour outcome (control, treated, inhibition, significance)” value (Carcinogen: 7,12-DIMETHYLBENZ[A]ANTHRACENE, 57-97-6, Dose [Inhibitor]: 5 MG/G DIET AT AGE 9 WK SIMULTANEOUSLY WITH CARCINOGEN, 3/WK FOR 6 WK (STUDY DURATION: 20 WK), Route [Inhibitor]: ORAL, Species: MOUSE, Strain/Sex: ICR/FEMALE, Target Tissue: Type of Lesion: FORESTOMACH: TUMOR, Dose [Carcinogen]: 0.05 MG/G DIET AT AGE 9 WK, 3/WK FOR 4 WK, Promoter: NONE USED) was 87%, 5%, 94%, p<0.01 and the “tumour outcome (control, treated, inhibition, significance)” value (Carcinogen: 7,12-DIMETHYLBENZ[A]ANTHRACENE, 57-97-6, Dose [Inhibitor]: 25 MG ONCE 2 HR BEFORE DMBA TREATMENT (STUDY DURATION: 18 WK), Route [Inhibitor]: INTRAGASTRIC, Species: RAT, Strain/Sex: SPRAGUE-DAWLEY/FEMALE, Target Tissue: Type of Lesion: MAMMARY GLAND: TUMOR, Dose [Carcinogen]: 12 MG IN 1 ML OLIVE OIL AT AGE 7 WK 2 HR AFTER AGENT TREATMENT, Promoter: NONE USED) was 77%, 54%, 30%, not significant. The “tumour outcome (control, treated, inhibition, significance)” value (Carcinogen: 7,12-DIMETHYLBENZ[A]ANTHRACENE, 57-97-6, Dose [Inhibitor]: 25 MG ONCE 4 HR BEFORE DMBA TREATMENT (STUDY DURATION: 18 WK), Route [Inhibitor]: INTRAGASTRIC, Species: RAT, Strain/Sex: SPRAGUE-DAWLEY/FEMALE, Target Tissue: Type of Lesion: MAMMARY GLAND: TUMOR, Dose [Carcinogen]: 12 MG IN 1 ML OLIVE OIL AT AGE 7 WK 4 HR AFTER AGENT TREATMENT, Promoter: NONE USED) was 86%, 50%, 42%, p<0.05, the “tumour outcome (control, treated, inhibition, significance)” value (Carcinogen: 7,12-DIMETHYLBENZ[A]ANTHRACENE, 57-97-6, Dose [Inhibitor]: 50 MG ONCE 2 HR BEFORE DMBA TREATMENT (STUDY DURATION: 18 WK), Route [Inhibitor]: INTRAGASTRIC, Species: RAT, Strain/Sex: SPRAGUE-DAWLEY/FEMALE, Target Tissue: Type of Lesion: MAMMARY GLAND: TUMOR, Dose [Carcinogen]: 12 MG IN 1 ML OLIVE OIL AT AGE 7 WK 2 HR AFTER AGENT TREATMENT, Promoter: NONE USED) was 77%, 8%, 90%, p<0.001 and the “tumour outcome (control, treated, inhibition, significance)” value (Carcinogen: 7,12-DIMETHYLBENZ[A]ANTHRACENE, 57-97-6, Dose [Inhibitor]: 50 MG ONCE 4 HR AFTER DMBA TREATMENT (STUDY DURATION: 18 WK), Route [Inhibitor]: INTRAGASTRIC, Species: RAT, Strain/Sex: SPRAGUE-DAWLEY/FEMALE, Target Tissue: Type of Lesion: MAMMARY GLAND: TUMOR, Dose [Carcinogen]: 12 MG IN 1 ML OLIVE OIL AT AGE 7 WK 4 HR BEFORE AGENT TREATMENT, Promoter: NONE USED) was 71%, 62%, 13%, not significant. For the same compound, the “tumour outcome (control, treated, inhibition, significance)” value (Carcinogen: 7,12-DIMETHYLBENZ[A]ANTHRACENE, 57-97-6, Dose [Inhibitor]: 50 MG ONCE 4 HR BEFORE DMBA TREATMENT (STUDY DURATION: 18 WK), Route [Inhibitor]: INTRAGASTRIC, Species: RAT, Strain/Sex: SPRAGUE-DAWLEY/FEMALE, Target Tissue: Type of Lesion: MAMMARY GLAND: TUMOR, Dose [Carcinogen]: 12 MG IN 1 ML OLIVE OIL AT AGE 7 WK 4 HR AFTER AGENT TREATMENT, Promoter: NONE USED) was 100%, 21%, 79%, p<0.001 and 85%, 23%, 73%, p<0.01.
